Tested on: neuronal damage caused by focal brain ischemia
Experiment: Focal cerebral ischemia, middle cerebral artery occlusion model in rats
Assay type: in vivo, Sprague-Dawley rats
Experimental: Other in vivo tests were also carried out using "focal" brain ischemia (i.e., blood supply to only a portion of the brain is disrupted, as usually occurs during a stroke). These assays used a surgical procedure described in Example 25, in which the right middle cerebral artery (MCA) and the right common carotid artery (CCA) of rats were clamped shut for two hours. The clamps were then removed, and the GERI-E7 was administered subsequently. The rats were sacrificed 3 days later, and brain sections were analyzed using tetrazolium dye, to determine the volumes of brain tissue with large numbers of dead or dying neurons.
In a second set of in vivo tests, a middle cerebral artery occlusion model was used in rats, to evaluate the ability of test compound GERI-E7 to reduce neuronal damage caused by focal brain ischemia. These tests were also performed in the laboratory of Dr. Claude Wasterlain, at the Sepulveda VA Medical Center in Los Angeles.
Male Sprague-Dawley rats (220 to 285 g) were intubated with an 18 gauge gavage needle and artificially respirated with a Harvard small animal respirator, 50 to 60 strokes/min, 2.0 to 3.0 cc. Anesthetization was induced by administering 1 to 2% methoxyflurane in a 1:2 O2 :N2 O gas mixture. To allow for rapid induction of the anesthetic state, succinylcholine (4 mg/kg, i.p.) was given immediately after anesthesia commenced, and surgery began 15 to 20 minutes later. Body temperature was maintained throughout by a heat lamp and rectal probe.
Focal cerebral ischemia was induced by reversibly clipping the right middle cerebral artery (MCA) and the right common carotid artery (CCA), as described in articles such as Kaplan et al 1991. A tracheal incision approximately 2.5 cm long was made, allowing placement of 4-0 suture silk under the CCA. This allowed rapid manipulation of the artery for clip placement. The temporalis muscle was partially excised and a 2 mm burr hole was drilled 2-3 mm rostral to the point of fusion of the zygoma with the temporal bone. Saline was used throughout this procedure for washing and maintenance of moisture.
The MCA was occluded below the rhinal fissure with a Codman Microaneurysm Clip #1. After the MCA was occluded the animal was turned onto its back and the CCA was occluded with a Roboz Microaneurysm Clip RS-5424.
A moistened piece of cotton was placed on the head wound and the tracheal region was partially closed by suture prior to placement of the animal in a warm cage with an oxygen tent. After a two-hour occlusion period (shown to produce a consistently measurable but non-lethal infarct), the clips were removed and methoxyflurane was administered via a nose cone. Visual verification was made for both artery occlusion, and post-occlusion reperfusion.
After the clips were removed and reperfusion was established, each animal was treated with either the GERI-E7 compound, at 20 mg/kg IV, or with the saline vehicle. All test and control groups had 10 animals. The wounds were closed and the animals were returned to their home cages.
Animals were sacrificed 72 hours later, and the brains were perfusion-fixedwith 4% paraformaldehyde. […] Infarct area was measured with an image analysis system at 8 to 10 levels between the posterior hippocampus and piriform olfactory cortex, to the level of the rhinal fissure. Infarct volume was determined by multiplying the average infarct area by the length of the brain between the posterior hippocampus and the piriform olfactory cortex. […]

## CCC[C@]12CCC(=O)C=C1c1c(cc(OCC3=NCCO3)c(Cl)c1Cl)C2 [GERI-E7, R(+)-2-[[(5,6-dichloro-2,3,9,9a-tetrahydro-3-oxo-9a-propyl-1H-fluoren-7-yl)-oxy]methyl]oxazoline]
20 mg/kg IV after 2 h occlusion, 72 h
  Edema: Edema was also reduced
20 mg/kg IV after 2 h occlusion, 72 h, FIG. 13
  Reduction of area of infarct volume: about 50%
Animal model used
  Reduction of brain damage caused by focal brain ischemia: very effective in reducing brain damage
First round of focal assays
  Reduction of infarct volumes: about 30%
Second set of assays, new batch stored in liquid nitrogen, mixed with carrier less than 24 hours before injection, average
  Reduction of infarct volumes: 50%

From US6251898A, “Medical use of fluorenone derivatives for treating and preventing brain and spinal injury” (Questcor Pharmaceuticals, Inc., priority 1999, dated 2001)
